Assays:
[1] = test system: conjunctival CD4 T cells; test: Conjunctival T cell infiltration (CD4 immunohistochemistry), desiccating stress model; format: in vivo, mouse; conditions: topical 30 mg/mL, 60 μg per eye, 5 days DS
Method: Female C57BL/6 mice, aged 6 to 8 weeks, were subjected to DS for 5 days (DS5) as described previously (de Paiva et al., 2006b; Niederkorn et al., 2006). Topical bilateral treatment with 1 eye drop per eye (2 μL volume) or subcutaneous injection (4 μL volume), 2 times per day, was initiated on day 1 concurrently with DS and continued through day 4. Treatment with the compound of formula I or dexamethasone phosphate 0.1% was compared to correspondingly treated vehicle controls. Mice were randomized to receive one of the test articles. […] Treatment effects were assessed on corneal staining with Oregon Green Dextran (OGD); expression of inflammatory markers in ocular surface tissues by real time PCR; cell population analysis in draining cervical lymph nodes by FACS analysis; conjunctival T cell infiltration by immunohistochemistry.
For immunohistochemistry, the eyes and adnexa of 5 mice/group (n=5) were excised, embedded in optimal cutting temperature (OCT compound; VWR, Suwanee, Ga.), and flash frozen in liquid nitrogen. […] Positively stained cells were counted in the goblet cell rich area of the conjunctiva, over a length of at least 500 μm in the epithelium for a distance of 500 μm using image-analysis software (NIS Elements Software, version 3.0, BR, Nikon). […]

[2] = test system: RPMI 8866 binding to VCAM-1; test: VCAM cell adhesion assay, RPMI 8866 cells; format: cell-based; conditions: Homo sapiens; RPMI 8866 cells to VCAM-1; read-out: Inhibition of cell adhesion (IC50)
Method: Jurkat J6 cells (human lymphoblast cell line) were grown as a suspension culture in RPMI 1640 supplemented with FCS (10%) and glutamine (2 mM). RPMI8866 cells (human B lymphoid cell line) were grown as a suspension culture in RPMI 1640 supplemented with FCS (10%) and glutamine (2 mM). RBL-2H3 cells (rat basophilic cell line) were cultured in Eagle's MEM plus Earles salts supplemented with 2 mM L-glutamine, 1 mM sodium pyruvate, 1× non-essential amino acids, 1 mM Na pyruvate 10% heat inactivated foetal calf serum.
Polystyrene 96-well microtitre plates were coated with IgG at a concentration of 0.05 mg/mL in bicarbonate buffer for 2 hours at 37° C. The solution was aspirated and the plates washed twice with PBS. The plates were then incubated overnight at 4° C. with a 1:4000 dilution of VCAM-1 of 3% BSA in PBS. Prior to use the VCAM-1 was aspirated and the plates washed twice with PBS.
J6 or RPMI cells (as required) were labelled with the fluorescent dye BCECF-AM (10 μM and 6×10^6 cells/mL) for 10 min at 37° C. before the excess was removed by centrifugation at 500 g for 5 min and the cells resuspended at a cell concentration of 1.2×10^7 cells/mL in HBSS. Equal volumes HBSS containing the compound of formula I (over concentration range 38.1 pM to 10 μM) and cells were added to the VCAM-1 coated plates. […] The plates were counted in a Wallac Viktor.

[3] = test system: 53 receptors and 4 transporters; test: MDS Pharma screen, radioligand binding assays; conditions: at 10 μM
[4] = test system: Beagle Dogs; test: 13-week topical ocular toxicity study in Beagle dogs; format: in vivo, dog
Method: GW559090A was given to Beagle Dogs by topical ocular administration for 13 weeks. Animals were dosed six or twelve times per day, with one hour between doses. Treatment groups were: (1) vehicle (12 times a day), (2) 30 mg/mL/occasion given six times a day, (3) 50 mg/mL/occasion given six times a day, or (4) 50 mg/mL/occasion, given 12 times a day.
GW559090A was formulated as a stock solution in 25 mM phosphate buffer with 0.5% sodium chloride to provide a 50 mg/mL stock solution, which was used for administration to Groups 3 or 4, or further diluted with 25 mM phosphate buffer with 0.75% sodium chloride to provide a 30 mg/mL solution for administration to Group 2.
During the 13 week treatment period dogs received daily topical ocular doses of GW559090 or vehicle (12 times a day) at a constant dose volume of 0.06 mL (given 6 or 12 times a day, with one hour between doses). The test article formulation or vehicle was carefully dropped into the everted lower eyelid of the left eye from a suitable distance, to prevent contact of the positive displacement pipette with the eye. The lower and upper lids were then gently held together for approximately five seconds, to prevent loss of dose and aid even distribution across the external ocular surface. The un-dosed eye was not manipulated at any time and served as a within animal untreated control site.

[5] = topical ocular 13 weeks, 30 or 50 mg/mL/occasion six times daily or 50 mg/mL/occasion 12 times daily

For `Cc1ccccc1OCC(=O)N[C@@H](CC(C)C)C(=O)N[C@@H](Cc1ccc(OC(=O)N2CCC(C(N)=O)CC2)cc1)C(=O)O` [GW559090, (2S)-3-[4-({[4-(Aminocarbonyl)-1-piperidinyl]carbonyl}oxy)phenyl]-2-[((2S)-4-methyl-2-{[2-(2-methylphenoxy)acetyl]amino}pentanoyl)amino]propanoic acid], the “Conjunctival T cell infiltration (cell density)” value [1] was “decreases”, the IC50 [2] was 4.81 nM and the “Inhibition in radioligand binding assays” value [3] was “No significant inhibition”. The “No-Observed-Adverse-Effect level (NOAEL)” value ([4]; given 12 times a day, 13 weeks) was 50 mg/mL/occasion, the “Ocular change or systemic toxicity” value [4, 5] was “no ocular change or systemic toxicity” and the Tolerability [4, 5] was “well-tolerated”.
